Earlier results, collected in US9085793B2, “Ex vivo methods to identify circulating drug metabolites with drug interaction potential” (XPD Consulting, LLC, priority 2012, dated 2015).
Like-named read-outs stand apart in the source and are kept apart here.

Experiments:
[1] = tested on: CYP3A; details: CYP 3A; in vivo inhibitory potential of metabolite over that of parent drug
[2] = tested on: T1, CYP3A; details: CYP 3A; metabolite
T1 construct: rows headed: Ki Parent Drug (P); other: CYP 3A; parent drug; Ki Metabolite (M); metabolite; [I]/Ki Parent Drug (P); [I]/Ki Metabolite (M)

[3] = target: T2, CYP2D6 (Homo sapiens, UniProt P10635); details: CYP 2D6; for IPM/IPP: in vivo inhibitory potential of metabolite over that of parent drug; for Ki: read-out: Ki Metabolite, metabolite
T2 sequence (P10635 whole entry): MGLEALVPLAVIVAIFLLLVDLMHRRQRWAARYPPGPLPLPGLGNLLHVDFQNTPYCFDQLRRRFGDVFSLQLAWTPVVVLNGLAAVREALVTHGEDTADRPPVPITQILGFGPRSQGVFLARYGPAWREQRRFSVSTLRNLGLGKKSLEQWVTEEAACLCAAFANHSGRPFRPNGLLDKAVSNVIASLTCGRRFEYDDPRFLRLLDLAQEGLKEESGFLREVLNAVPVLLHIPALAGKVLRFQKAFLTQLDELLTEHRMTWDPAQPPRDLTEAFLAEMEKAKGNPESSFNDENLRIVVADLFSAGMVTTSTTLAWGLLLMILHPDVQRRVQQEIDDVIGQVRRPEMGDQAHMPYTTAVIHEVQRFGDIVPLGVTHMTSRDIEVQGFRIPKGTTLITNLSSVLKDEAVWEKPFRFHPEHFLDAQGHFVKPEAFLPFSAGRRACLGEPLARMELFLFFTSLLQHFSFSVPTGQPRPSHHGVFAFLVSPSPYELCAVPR

[4] = target: CYP3A4 (Homo sapiens, UniProt P08684); details: human hepatocytes
Sequence of CYP3A4 (P08684 whole entry): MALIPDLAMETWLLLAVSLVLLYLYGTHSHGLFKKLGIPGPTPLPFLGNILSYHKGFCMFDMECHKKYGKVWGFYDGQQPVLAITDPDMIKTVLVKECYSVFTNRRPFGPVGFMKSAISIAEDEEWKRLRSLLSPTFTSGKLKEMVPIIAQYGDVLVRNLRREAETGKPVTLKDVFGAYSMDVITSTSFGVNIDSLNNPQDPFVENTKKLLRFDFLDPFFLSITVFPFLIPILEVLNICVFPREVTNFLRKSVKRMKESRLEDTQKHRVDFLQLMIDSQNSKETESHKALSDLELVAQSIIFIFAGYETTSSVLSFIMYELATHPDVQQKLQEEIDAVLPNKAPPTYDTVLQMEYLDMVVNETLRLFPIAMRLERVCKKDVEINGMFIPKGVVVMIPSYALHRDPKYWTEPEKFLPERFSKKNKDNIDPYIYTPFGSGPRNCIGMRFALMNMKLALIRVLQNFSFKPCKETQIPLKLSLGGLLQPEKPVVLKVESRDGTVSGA

[5] = target: T3, CYP2C9 (Homo sapiens, UniProt P11712)
T3 sequence (P11712 whole entry): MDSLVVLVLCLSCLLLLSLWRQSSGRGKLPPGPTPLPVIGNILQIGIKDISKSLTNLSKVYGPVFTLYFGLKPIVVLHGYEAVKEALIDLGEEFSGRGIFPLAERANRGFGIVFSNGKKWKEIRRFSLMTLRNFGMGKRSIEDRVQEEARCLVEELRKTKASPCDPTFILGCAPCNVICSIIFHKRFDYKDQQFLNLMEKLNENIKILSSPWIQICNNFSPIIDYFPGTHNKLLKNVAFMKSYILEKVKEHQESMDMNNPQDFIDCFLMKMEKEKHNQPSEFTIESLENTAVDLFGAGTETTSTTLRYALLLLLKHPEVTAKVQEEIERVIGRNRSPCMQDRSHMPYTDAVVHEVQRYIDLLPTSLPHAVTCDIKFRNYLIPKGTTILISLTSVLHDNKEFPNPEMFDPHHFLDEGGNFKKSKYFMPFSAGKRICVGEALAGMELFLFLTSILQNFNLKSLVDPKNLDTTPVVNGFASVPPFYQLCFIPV

[6] = target: T2, CYP2D6; details: human hepatocytes
[7] = target: T3, CYP2C9; details: read-out: Ki Metabolite, CYP 2C9
[8] = in vivo
[9] = target: T2, CYP2D6; details: human liver microsomes
[10] = target: T3, CYP2C9; remark: listed apart in the source
[11] = circulating plasma level (in vivo concentration) of metabolite

Structure (SMILES)	[I] Metabolite (M) [11]	IPM/IPP [3]	Ki [3]	further results
CC(C)c1c(C(=O)Nc2ccccc2)c(-c2ccccc2)c(-c2ccc(F)cc2)n1CC[C@@H]1C[C@@H](O)CC(=O)O1 [Atorvastatin lactone]	3e-09 M			IPM/IPP [1]: 5.5; Ki [2]: 0.9 µM
C[C@H]1NC(C)(C)CO[C@]1(O)c1cccc(Cl)c1 [Hydroxybupropion]	3.2e-06 M	17.0	13 µM	
C[C@H](NC(C)(C)C)[C@@H](O)c1cccc(Cl)c1 [Threobupropion]	1.9e-06 M	24.8	5.4 µM	
CCCCc1oc2ccccc2c1C(=O)c1cc(I)c(OCCNCC)c(I)c1 [N-Desethylamiodarone]				[I] Metabolite (M) (in vivo): 1.5e-06 M
Cc1ncc2n1-c1ccc(Cl)cc1C(c1ccccc1F)=NC2 [Midazolam]				Increase in Km ([4]; plasma versus medium): 5.7 fold; Km ([4]; read-out: Km Medium, cell culture medium (HMM)): 8.11 ± 0.65 µM; Km ([4]; read-out: Km Plasma, human plasma): 45.8 ± 4.38 µM
Clc1ccc(COC(Cn2ccnc2)c2ccc(Cl)cc2Cl)c(Cl)c1 (centres unmarked) [Miconazole]				IC50 [5]: 2.02 ± 0.37 µM; IC50 ([5]; hepatocytes): 2.12 ± 0.37 µM
CN[C@H]1CC[C@@H](c2ccc(Cl)c(Cl)c2)c2ccccc21 [Sertraline]				IC50 ([6]; human plasma, read-out: IC50 Plasma): 13.1 ± 3.49 µM; IC50 ([6]; medium, read-out: IC50 Medium): 3.1 ± 0.34 µM
OC(CCCN1CCC(O)(c2ccc(Cl)cc2)CC1)c1ccc(F)cc1 (centres unmarked) [Reduced haloperidol]	8e-09 M	1.3	0.24 µM	
O=C1C(CCSc2ccccc2)C(=O)N(c2ccccc2)N1c1ccccc1 [Sulfinpyrazone sulfide]				Ki [7]: 27 µM
Nc1ccc(S(=O)(=O)Nc2ccnn2-c2ccccc2)cc1 [Sulfaphenazole]				IC50 increased on addition of plasma ([5]; addition of plasma to human hepatocytes or human liver microsomes): more than 10 fold
NCCC(Oc1ccc(C(F)(F)F)cc1)c1ccccc1 (centres unmarked) [Norfluoxetine]			0.2 µM	Plasma half-life [8]: about 16 days
CNCCCN1c2ccccc2CCc2ccc(Cl)cc21 [N-Desmethylclomipramine]		4.2	7.9 µM	[I] Metabolite (M) (in vivo): 4.9e-07 M
COc1ccc2c(c1)[C@]13CCCC[C@@H]1[C@H](C2)N(C)CC3 [dextromethorphan]				Increase in Km on adding plasma (in words, FIG. 6) [9]: relatively small increase in Km; Increase in Km on addition of plasma [9]: less than six
CNCCC(Oc1ccc(C(F)(F)F)cc1)c1ccccc1 (centres unmarked) [Fluoxetine]				Plasma half-life [8]: 96 to 140 h
CCNCc1cc(Nc2ccnc3cc(Cl)ccc23)ccc1O [Desethylamodiaquine]	8.2e-07 M	5.1	4.1 µM	
Cc1nc2n(c(=O)c1CCN1CCC(c3noc4cc(F)ccc34)CC1)CCCC2O (centres unmarked) [Paliperidone]	4.6e-08 M	1.0	16 µM	IPM/IPP [1]: 2.0; Ki [2]: 80 µM
O=C(O)Cc1ccccc1Nc1c(Cl)cccc1Cl [Diclofenac]				Increase in Km on adding plasma (in words, FIG. 6) [10]: relatively large increase in Km; Increase in Km on addition of plasma [10]: more than 40 fold
CC(NC(C)(C)C)C(O)c1cccc(Cl)c1 (centres unmarked) [Erythrobupropion]	3.7e-07 M	15.3	1.7 µM	
CNCC(c1ccc(OC)cc1)C1(O)CCCCC1 (centres unmarked) [N-Desmethylvenlafaxine]				[I] Metabolite (M) (in vivo): 9.3e-07 M
